Some test systems named below: TK-10 renal; K-562 leukemia; HCT-116 colon; U251 CNS; KM12 colon; SF-268 CNS; HOP-62 NSCLC; PC-3 prostate; MCF7 breast; UO-31 renal.
Holding throughout (experiment): DTP human tumour cell line panel, 48 h

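Compound exposure: 48 hours, 5 concentrations, 96-well plates. GI50: concentration for 50% inhibition of growth. TGI: total growth inhibition.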

Usually GI50 stands for the concentration giving 50% growth inhibition. The term TGI denotes the concentration giving total growth inhibition. Lower therefore signals more potent growth arrest. As for `CC[C@H](CO)Nc1nc(NCc2ccccc2)n2ncc(C(C)C)c2n1`, the GI50 with TK-10 renal is 2 µM; in the experiment with K-562 leukemia it was 2.44 µM; with HCT-116 colon, 0.51 µM; with U251 CNS, 1.4 µM; with KM12 colon, 0.711 µM; in the experiment with SF-268 CNS it was 1.82 µM. In addition, the GI50 was 2.1 µM in the experiment on HOP-62 NSCLC, 0.927 µM in the experiment with PC-3 prostate, 0.592 µM in the experiment with MCF7 breast and 1.59 µM with UO-31 renal. Further, the concentration for total growth inhibition (TGI) in the experiment on TK-10 renal came out at 10.9 µM; with K-562 leukemia it was 7.38 µM; in the experiment with HCT-116 colon, 15 µM; in the experiment on U251 CNS, 10.5 µM; in the experiment with KM12 colon, 2.79 µM; in the experiment with SF-268 CNS it was 7.2 µM. Also, the TGI with HOP-62 NSCLC was 8.72 µM; with PC-3 prostate it was 12.3 µM; in the experiment on MCF7 breast, 7.99 µM; in the experiment on UO-31 renal it was more than 100 µM.

As to `COc1ccc(OC)c(-c2c(C#N)c(N)nc(N3CCOCC3)c2C#N)c1`, the GI50 in the experiment with TK-10 renal was 45 µM; in the experiment on K-562 leukemia, more than 100 µM; in the experiment with HCT-116 colon, more than 100 µM; with U251 CNS it was more than 100 µM; with KM12 colon, more than 100 µM; in the experiment on SF-268 CNS, more than 100 µM. Besides, the GI50 was 65.3 µM in the experiment on HOP-62 NSCLC, 95.4 µM in the experiment with PC-3 prostate, more than 100 µM in the experiment with MCF7 breast and 46 µM in the experiment on UO-31 renal. The TGI with TK-10 renal, in the experiment on K-562 leukemia, in the experiment with HCT-116 colon, with U251 CNS, in the experiment with KM12 colon and in the experiment with SF-268 CNS was more than 100 µM throughout. For the same molecule, the TGI in the experiment with HOP-62 NSCLC, with PC-3 prostate, in the experiment with MCF7 breast and in the experiment with UO-31 renal was more than 100 µM throughout.

Consider `O=C(Nc1cccc(NC(=O)Nc2cc(C(F)(F)F)ccc2Cl)c1)Nc1cc(C(F)(F)F)ccc1Cl`, for which the GI50 was 2.57 µM in the experiment with TK-10 renal; 2.17 µM in the experiment with K-562 leukemia; 2.41 µM with HCT-116 colon; 1.93 µM in the experiment with U251 CNS; 1.53 µM in the experiment with KM12 colon; 5.19 µM with SF-268 CNS. In addition, the GI50 is 1.35 µM in the experiment on HOP-62 NSCLC, 1.4 µM with PC-3 prostate, 0.516 µM in the experiment with MCF7 breast and 2.49 µM in the experiment with UO-31 renal. Further, the TGI in the experiment with TK-10 renal came to 11.5 µM; with K-562 leukemia, 44.7 µM; with HCT-116 colon, 22.8 µM; in the experiment with U251 CNS, 7.91 µM; in the experiment with KM12 colon, 57.1 µM; in the experiment on SF-268 CNS, 34.2 µM. The TGI with HOP-62 NSCLC was determined as 4.01 µM; in the experiment on PC-3 prostate, 8.23 µM; with MCF7 breast it was 32.9 µM; in the experiment with UO-31 renal, 14.7 µM.

Turning to `O=C(/C=C/c1ccc([N+](=O)[O-])cc1)c1ccc2c3c(cccc13)CC2`, the GI50 in the experiment on TK-10 renal is 31.4 µM; in the experiment with K-562 leukemia, 4.37 µM; with HCT-116 colon it was 4.33 µM; with U251 CNS, 2.65 µM; in the experiment with KM12 colon, 3.1 µM; with SF-268 CNS, 8.18 µM. Further, the GI50 in the experiment on HOP-62 NSCLC was 11.4 µM; with PC-3 prostate, 4.72 µM; in the experiment with MCF7 breast it was 2.7 µM; with UO-31 renal, 10.4 µM. The concentration for total growth inhibition (TGI) with TK-10 renal is more than 75 µM; in the experiment with K-562 leukemia, more than 100 µM; in the experiment on HCT-116 colon it was 25.7 µM; in the experiment with U251 CNS, more than 29.6 µM; in the experiment on KM12 colon, 14.2 µM; in the experiment with SF-268 CNS it was more than 100 µM. Besides, the TGI in the experiment on HOP-62 NSCLC is more than 81.9 µM; in the experiment with PC-3 prostate, more than 100 µM; with MCF7 breast, more than 25.4 µM; in the experiment on UO-31 renal, more than 62.6 µM.

Take `Cc1c2c(nn1C)CSCc1cc(n(C)n1)CSc1cc(c3ccccc3c1)OCCCc1c(C(=O)O)n(C)c3c-2c(Cl)ccc13`: the GI50 in the experiment on TK-10 renal was 4.75 µM; in the experiment on K-562 leukemia, 3.78 µM; in the experiment with HCT-116 colon, 3.53 µM; in the experiment with U251 CNS, 4.05 µM; in the experiment on KM12 colon, 3.3 µM; in the experiment on SF-268 CNS, 4.42 µM. Moreover, the GI50 with HOP-62 NSCLC was 4.62 µM; in the experiment on PC-3 prostate, 3.42 µM; with MCF7 breast, 0.575 µM; with UO-31 renal, 5.07 µM. The TGI in the experiment on TK-10 renal turned out to be 18.3 µM; in the experiment with K-562 leukemia, 16.8 µM; with HCT-116 colon, 13 µM; in the experiment with U251 CNS it was 13.7 µM; with KM12 colon, 11.9 µM; in the experiment with SF-268 CNS, 16.3 µM. Besides, the TGI in the experiment with HOP-62 NSCLC stood at 17.3 µM; in the experiment on PC-3 prostate, 13.2 µM; in the experiment on MCF7 breast it was 11.3 µM; in the experiment on UO-31 renal, 17.8 µM.

Regarding `Cn1cc(C2=C(c3cccc(OCC(O)CO)c3)C(=O)NC2=O)c2ccccc21` (stereo not given), the GI50 in the experiment on TK-10 renal, with K-562 leukemia, with HCT-116 colon, with U251 CNS, with KM12 colon and in the experiment with SF-268 CNS was more than 25 µM each time. In addition, the GI50 in the experiment with HOP-62 NSCLC, in the experiment on PC-3 prostate, in the experiment with MCF7 breast and in the experiment on UO-31 renal was more than 25 µM each time. In addition, the TGI in the experiment on TK-10 renal, in the experiment on K-562 leukemia, with HCT-116 colon, in the experiment with U251 CNS, with KM12 colon and with SF-268 CNS was more than 25 µM throughout. Further, the TGI in the experiment on HOP-62 NSCLC, with PC-3 prostate, in the experiment with MCF7 breast and in the experiment with UO-31 renal was more than 25 µM in each case.

In the case of `CS[C@]12C(=O)C[C@@]3(C)[C@@H](CC[C@]3(O)C(=O)CO)[C@@H]1CCC1=CC(=O)CC[C@@]12C`, the TGI in the experiment on TK-10 renal, in the experiment with K-562 leukemia, in the experiment with HCT-116 colon, in the experiment on U251 CNS, in the experiment on KM12 colon and in the experiment on SF-268 CNS was more than 100 µM each time. In addition, the TGI in the experiment on HOP-62 NSCLC, in the experiment on PC-3 prostate, in the experiment on MCF7 breast and with UO-31 renal was more than 100 µM throughout.

For the molecule `CCc1ccc(NC(=O)COC(=O)c2cc([N+](=O)[O-])ccc2Sc2nnnn2C)cc1`, the GI50 in the experiment with TK-10 renal is 46.4 µM; in the experiment with K-562 leukemia it was 9.4 µM; in the experiment on HCT-116 colon, 6.76 µM; with U251 CNS, 15.4 µM; in the experiment with KM12 colon, 19.6 µM; in the experiment on SF-268 CNS, 14.5 µM. In addition, the GI50 in the experiment on HOP-62 NSCLC is 15.2 µM; in the experiment with PC-3 prostate it was 15.2 µM; in the experiment on MCF7 breast, 20.1 µM; in the experiment on UO-31 renal it was 24.9 µM. Besides, the TGI is more than 100 µM in the experiment on TK-10 renal; 50.6 µM with K-562 leukemia; 20.2 µM with HCT-116 colon; 34.1 µM in the experiment on U251 CNS; more than 100 µM in the experiment with KM12 colon; 70.7 µM in the experiment on SF-268 CNS. Also, the TGI with HOP-62 NSCLC was 36 µM; with PC-3 prostate, 84.5 µM; with MCF7 breast, 60.6 µM; with UO-31 renal, more than 100 µM.

The values are drawn from PubChem BioAssay (NCI).
